Data as given in patent publication US8389508B2 (Glaxo Group Limited, priority 2010, dated 2013).
Where a name gives a salt, the structure may show the parent alone.

Columns and labels:
[1] = molecular target: T1, human Endothelial Differentiation Gene 1 (EDG1), S1P1 receptor (Homo sapiens, UniProt P21453); assay: S1P1 Assay (Tango EDG1-bla/U2OS beta-lactamase reporter, agonist dose response); type: cell-based; conditions: EDG1-bla/U2OS cells, blue/green emission ratio, 10 point dose response, free base or salt form; read-out: pEC50 (S1P1 assay) (converted)
T1 construct: TEV protease site; Gal4-VP16 transcription factor; expressed in transfected cells; host or cells: EDG1-bla/U2OS (Tango GPCR-bla U2OS parental cell line)
T1 sequence (P21453 whole entry, the tested form may be a part): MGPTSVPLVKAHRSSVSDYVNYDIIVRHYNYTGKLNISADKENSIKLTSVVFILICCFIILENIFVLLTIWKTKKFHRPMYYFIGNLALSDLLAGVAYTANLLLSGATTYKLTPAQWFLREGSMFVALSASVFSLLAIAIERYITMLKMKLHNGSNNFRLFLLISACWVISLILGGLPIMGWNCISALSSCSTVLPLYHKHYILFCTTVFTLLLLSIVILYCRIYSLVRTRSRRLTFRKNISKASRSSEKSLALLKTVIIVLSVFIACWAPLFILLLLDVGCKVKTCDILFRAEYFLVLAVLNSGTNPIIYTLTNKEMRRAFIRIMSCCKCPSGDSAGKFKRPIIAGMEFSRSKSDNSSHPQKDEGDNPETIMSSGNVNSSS
Protocol: Recombinant EDG1-bla/U2OS cells (contain the human Endothelial Differentiation Gene 1 (EDG1) linked to a TEV protease site and a Gal4-VP16 transcription factor stably integrated into the Tango GPCR-bla U2OS parental cell line) were harvested from growth medium and passaged into assay medium (Invitrogen Freestyle Expression Medium). The cells were starved for 24 hours at 37° C., 5% CO2, harvested and resuspended in assay medium at a density of ˜200,000 cells/ml. All test compounds were dissolved in DMSO at a concentration of 10 mM and were prepared in 100% DMSO to provide 10 point dose response curves. Test compounds in the free base or in a salt form were prepared by Velocity11 Bravo automation (Agilent) were added to wells in columns 2-11 and 13-22; DMSO was added to wells in columns 12 and 23 as unstimulated controls and assay medium was added to wells in columns 1 and 24 as cell-free controls. An S1P1 agonist was added to wells in row 2, columns 2-11 as stimulated controls and test compounds were added to wells in row 2, columns 13-22 and rows 3-15, columns 2-11/13-22 (row 1 and 16 were empty and not used). Compounds in solution were added to the assay plate (Greiner 781090) using an Echo (Labcyte) dose-response program (50 nl/well). The unstimulated and cell-free controls were loaded with 50 nl/well pure DMSO to ensure that the DMSO concentration was constant across the plate for all assays. 50 μl of the cell suspension was added to each well in columns 2-23 of the plate (˜10,000 cells per well). 50 μl of assay medium was added to each well in the cell-free controls (columns 1 and 24). The cells were incubated overnight at 37° C./5% CO2.
(§1) 10 μl of 6× substrate mixture (LiveBLAzer™-FRET B/G substrate (CCF4-AM) Cat # K1096 from Invitrogen, Inc.) was added to each well using Bravo automation and the plates incubated at room temperature for 2 h in the dark. The plate was finally read on EnVision using one excitation channel (409 nm) and two emission channels (460 nm and 530 nm).
(§2) The blue/green emission ratio (460 nm/530 nm) was calculated for each well, by dividing the background-subtracted Blue emission values by the background-subtracted Green emission values. The dose response curve is based on sigmoidal dose-response model. All ratio data was normalized based upon the maximum emission ratio of positive control and minimum emission ratio of negative control (DMSO) on each plate. The intrinsic activity (IA) of each compound is defined as relative response normalised to a reference compound, whose maximum response is defined as 100% after curve fitting.

[2] = molecular target: T2, human Endothelial Differentiation G-protein Coupled Receptor 3 (EDG3), S1P3 receptor (Homo sapiens, UniProt Q99500); assay: S1P3 Assay (GeneBLAzer EDG3-Ga15-NFAT-bla HEK 293T beta-lactamase reporter, agonist dose response); type: cell-based; conditions: EDG3-Ga15-NFAT-bla HEK 293T cells, blue/green emission ratio, 10 point dose response, free base or salt form; read-out: pEC50 (S1P3 assay) (converted)
T2 construct: expressed in transfected cells; host or cells: GeneBLAzer EDG3-Ga15-NFAT-bla HEK 293T
T2 sequence (Q99500 whole entry): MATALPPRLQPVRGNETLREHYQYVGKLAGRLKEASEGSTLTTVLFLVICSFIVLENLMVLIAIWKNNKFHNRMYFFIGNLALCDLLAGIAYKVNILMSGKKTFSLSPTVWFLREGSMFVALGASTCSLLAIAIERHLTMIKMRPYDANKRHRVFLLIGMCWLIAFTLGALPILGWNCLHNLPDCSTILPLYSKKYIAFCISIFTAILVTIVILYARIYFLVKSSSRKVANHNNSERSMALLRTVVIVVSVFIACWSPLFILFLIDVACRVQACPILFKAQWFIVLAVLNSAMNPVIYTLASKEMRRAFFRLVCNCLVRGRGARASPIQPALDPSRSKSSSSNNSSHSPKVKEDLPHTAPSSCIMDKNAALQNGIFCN
Protocol: GeneBLAzer EDG3-Ga15-NFAT-bla HEK 293T cells (contain the human Endothelial Differentiation G-protein Coupled Receptor 3 (EDG3) and a beta-lactamase reporter gene under control of a NFAT response element and a promiscuous G Protein, Ga15, stably integrated into the GeneBLAzer Ga15-NFAT-bla HEK 293T cell line) were harvested from growth medium and suspended in assay medium (90% DMEM, 10% Charcoal-stripped FBS, 0.1 mM NEAA, 25 mM HEPES (pH 7.3), 100 U/ml penicillin, 100 μg/ml streptomycin) at a density of […]. All test compounds were dissolved in DMSO at a concentration of 10 mM and were prepared in 100% DMSO to provide 10 point dose response curves. Test compounds in the free base or in a salt form were prepared by Velocity 11 Bravo automation (Agilent) were added to wells in columns 2-11 and 13-22; DMSO was added to wells in columns 12 and 23 as unstimulated controls and assay medium was added to wells in columns 1 and 24 as cell-free controls. An S1P3 agonist was added to wells in row 2, columns 2-11 as stimulated controls and test compounds were added to wells in row 2, columns 13-22 and rows 3-15, columns 2-11/13-22 (row 1 and 16 were empty and not used). Compounds in solution were added to the assay plate (Greiner 781090) using an Echo (Labcyte) dose-response program (50 nl/well). The unstimulated and cell-free controls were loaded with 50 nl/well pure DMSO to ensure that the DMSO concentration was constant across the plate for all assays.
50 μl of the cell suspension was added to each well in columns 2-23 of the plate (˜10,000 cells per well). 50 μl of assay medium was added to each well in the cell-free controls (columns 1 and 24). The cells were incubated overnight at 37° C./5% CO2.
as §1, §2

## CCc1c(CCN2CC(C(=O)O)C2)cccc1-c1cnc(-c2ccc(OC(C)C)c(C#N)c2)s1 [Example 34, 1-{2-[3-(2-{3-cyano-4-[(1-methylethyl)oxy]phenyl}-1,3-thiazol-5-yl)-2-ethylphenyl]ethyl}-3-azetidinecarboxylic acid trifluoroacetate]
[1]
  EC50: < 1 nM
[2]
  EC50: > 3160 nM

## CCc1c(CN2CCC(C(=O)O)CC2)cccc1-c1cnc(-c2ccc(OC(C)C)c(Cl)c2)s1 [Example 36, 1-{[3-(2-{3-chloro-4-[(1-methylethyl)oxy]phenyl}-1,3-thiazol-5-yl)-2-ethylphenyl]methyl}-4-piperidinecarboxylic acid trifluoroacetate]
[1]
  EC50: < 100 nM
[2]
  EC50: > 10000 nM

## CCc1c(CCN2CCC(C(=O)O)CC2)cccc1-c1cnc(-c2ccc(OC(C)C)c(C#N)c2)s1 [Example 37, 1-{2-[3-(2-{3-cyano-4-[(1-methylethyl)oxy]phenyl}-1,3-thiazol-5-yl)-2-ethylphenyl]ethyl}-4-piperidinecarboxylic acid trifluoroacetate]
[1]
  EC50: < 1 nM
[2]
  EC50: 933 nM

## CCc1c(CN2CC(C(=O)O)C2)cccc1-c1cnc(-c2ccc(OC(C)C)c(C#N)c2)s1 [Example 38, 1-{[3-(2-{3-cyano-4-[(1-methylethyl)oxy]phenyl}-1,3-thiazol-5-yl)-2-ethylphenyl]methyl}-3-azetidinecarboxylic acid trifluoroacetate]
[1]
  EC50: < 1 nM
[2]
  EC50: > 10000 nM

## CCc1c(CN2CC(C(=O)O)C2)cccc1-c1cnc(-c2ccc(OC(C)C)c(Cl)c2)s1 [Example 39, 1-{[3-(2-{3-chloro-4-[(1-methylethyl)oxy]phenyl}-1,3-thiazol-5-yl)-2-ethylphenyl]methyl}-3-azetidinecarboxylic acid trifluoroacetate]
[1]
  EC50: < 1 nM
[2]
  EC50: > 10000 nM

## CCc1c(CCN2CC(C(=O)O)C2)cccc1-c1cnc(-c2ccc(OC(C)C)c(Cl)c2)s1 [Example 41, 1-{2-[3-(2-{3-chloro-4-[(1-methylethyl)oxy]phenyl}-1,3-thiazol-5-yl)-2-ethylphenyl]ethyl}-3-azetidinecarboxylic acid trifluoroacetate]
[1]
  EC50: < 1 nM
[2]
  EC50: > 3160 nM

## CCc1c(CN2CCC(C(=O)O)CC2)cccc1-c1cnc(-c2ccc(CC(C)C)c(C#N)c2)s1 [Example 42, 1-[(3-{2-[3-cyano-4-(2-methylpropyl)phenyl]-1,3-thiazol-5-yl}-2-ethylphenyl)methyl]-4-piperidinecarboxylic acid trifluoroacetate]
[1]
  EC50: ≤ 10 nM
[2]
  EC50: > 10000 nM

## CCc1c(CN2CC(C(=O)O)C2)cccc1-c1cnc(-c2ccc(CC(C)C)c(C#N)c2)s1 [Example 43, 1-[(3-{2-[3-cyano-4-(2-methylpropyl)phenyl]-1,3-thiazol-5-yl}-2-ethylphenyl)methyl]-3-azetidinecarboxylic acid trifluoroacetate]
[1]
  EC50: < 1 nM
[2]
  EC50: > 3160 nM

## CCc1c(CN2CCC(C(=O)O)C2)cccc1-c1nnc(-c2ccc(OC(C)C)c(Cl)c2)s1 (stereo not shown) [Example 44, 1-{[3-(5-{3-chloro-4-[(1-methylethyl)oxy]phenyl}-1,3,4-thiadiazol-2-yl)-2-ethylphenyl]methyl}-3-pyrrolidinecarboxylic acid trifluoroacetate]
[1]
  EC50: ≤ 10 nM
[2]
  EC50: > 3160 nM

## CCc1c(CN2CCCC(C(=O)O)C2)cccc1-c1nnc(-c2ccc(OC(C)C)c(Cl)c2)s1 (stereo not shown) [Example 46]
[1]
  EC50: < 100 nM
[2]
  EC50: > 10000 nM

## CCc1c(CN2CCC[C@H](C(=O)O)C2)cccc1-c1nnc(-c2ccc(OC(C)C)c(Cl)c2)s1 [Example 47]
[1]
  EC50: ≤ 10 nM
[2]
  EC50: > 10000 nM

## CCc1c(CN2CCC(C(=O)O)C2)cccc1-c1nnc(-c2ccc(CC(C)C)c(C#N)c2)s1 (stereo not shown) [Example 48, 1-[(3-{5-[3-cyano-4-(2-methylpropyl)phenyl]-1,3,4-thiadiazol-2-yl}-2-ethylphenyl)methyl]-3-pyrrolidinecarboxylic acid]
[1]
  EC50: < 1 nM
[2]
  EC50: > 3160 nM

## CCc1c(CN2CCCC(C(=O)O)C2)cccc1-c1nnc(-c2ccc(CC(C)C)c(C#N)c2)s1 (stereo not shown) [Example 50]
[1]
  EC50: ≤ 10 nM
[2]
  EC50: > 10000 nM

## CCc1c(CN2CCC[C@H](C(=O)O)C2)cccc1-c1nnc(-c2ccc(CC(C)C)c(C#N)c2)s1 [Example 51]
[1]
  EC50: < 1 nM
[2]
  EC50: > 10000 nM

## CCc1c(CCN2CCC[C@H]2C(=O)O)cccc1-c1nnc(-c2ccc(OC(C)C)c(Cl)c2)s1 [Example 52]
[1]
  EC50: < 100 nM
[2]
  EC50: > 10000 nM

## CCc1c(CCN2C[C@H](O)C[C@H]2C(=O)O)cccc1-c1nnc(-c2ccc(OC(C)C)c(Cl)c2)s1 [Example 55]
[1]
  EC50: ≤ 10 nM
[2]
  EC50: > 10000 nM

## CCc1c(CCN2CCCC(C(=O)O)C2)cccc1-c1nnc(-c2ccc(OC(C)C)c(Cl)c2)s1 (stereo not shown) [Example 56]
[1]
  EC50: < 1 nM
[2]
  EC50: > 3160 nM

## CCc1c(CCN2CCC[C@H](C(=O)O)C2)cccc1-c1nnc(-c2ccc(OC(C)C)c(Cl)c2)s1 [Example 57]
[1]
  EC50: < 1 nM
[2]
  EC50: > 3160 nM

## Cc1c(CCN2CCC(C(=O)O)CC2)cccc1-c1nnc(-c2ccc(OC(C)C)c(Cl)c2)s1 [Example 58, 1-{2-[3-(5-{3-chloro-4-[(1-methylethyl)oxy]phenyl}-1,3,4-thiadiazol-2-yl)-2-methylphenyl]ethyl}-4-piperidinecarboxylic acid]
[1]
  EC50: ≤ 10 nM
[2]
  EC50: > 3160 nM

## CCc1c(CCN2CCC[C@H]2C(=O)O)cccc1-c1nnc(-c2ccc(CC(C)C)c(C#N)c2)s1 [Example 59, 1-[2-(3-{5-[3-cyano-4-(2-methylpropyl)phenyl]-1,3,4-thiadiazol-2-yl}-2-ethylphenyl)ethyl]-L-proline]
[1]
  EC50: ≤ 10 nM
[2]
  EC50: > 10000 nM

## CCc1c(CCN2CCC(C(=O)O)C2)cccc1-c1nnc(-c2ccc(CC(C)C)c(C#N)c2)s1 (stereo not shown) [Example 61]
[1]
  EC50: < 1 nM
[2]
  EC50: > 3160 nM

## CCc1c(CCN2CC[C@H](C(=O)O)C2)cccc1-c1nnc(-c2ccc(CC(C)C)c(C#N)c2)s1 [Example 62]
[1]
  EC50: < 1 nM
[2]
  EC50: > 3160 nM

## CCc1c(CCN2CCCC(C(=O)O)C2)cccc1-c1nnc(-c2ccc(CC(C)C)c(C#N)c2)s1 (stereo not shown) [Example 63]
[1]
  EC50: < 1 nM
[2]
  EC50: > 3160 nM

## CCc1c(CCN2CCC[C@H](C(=O)O)C2)cccc1-c1nnc(-c2ccc(CC(C)C)c(C#N)c2)s1 [Example 64]
[1]
  EC50: < 1 nM
[2]
  EC50: > 3160 nM

## CCc1c(CCN2CCC[C@H]2C(=O)O)cccc1-c1nsc(-c2ccc(OC(C)C)c(Cl)c2)n1 [Example 65, 1-{2-[3-(5-{3-chloro-4-[(1-methylethyl)oxy]phenyl}-1,2,4-thiadiazol-3-yl)-2-ethylphenyl]ethyl}-L-proline trifluoroacetate]
[1]
  EC50: ≤ 10 nM
[2]
  EC50: > 3160 nM

## CCc1c(CCN2C[C@H](O)C[C@H]2C(=O)O)cccc1-c1nsc(-c2ccc(OC(C)C)c(Cl)c2)n1 [Example 69]
[1]
  EC50: < 1 nM
[2]
  EC50: > 3160 nM
